Experimental data from US6809065B2, “Herbicide containing substituted pyrazole derivative as active ingredient” (SDS Biotech K.K., priority 2001, dated 2004).

Assays:
soybean (Glycine max) [1] = assay: Upland soil treatment (Test Example 2), crop; type: in vivo; details: soil surface treatment next day after sowing, 1 kg active ingredient per hectare, evaluated 21st day, lower index = higher safety
In short: (§1)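 Pre-emergence soil treatment: day after sowing, WP formulation diluted in water, applied uniformly to soil surface at 1 kg a.i./ha. Seeds sown ~1 cm deep in upland soil. Visual index read 21 d after application (weeds: high = effective; crop: low = safe).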

[2] = system: wheat (Triticum aestivum); assay: Upland soil treatment (Test Example 2), crop; type: in vivo; details: soil surface treatment next day after sowing, 1 kg active ingredient per hectare, evaluated 21st day, lower index = higher safety
In short: as §1

Echinochloa spp. = assay: Paddy field treatment (Test Example 3); type: in vivo, Echinochloa crusgalli; details: paddy pot, submerged 4 cm, dropped on water surface 10th day after transplantation, 1 kg active ingredient per hectare, evaluated 21st day
In short: (§2)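 Weeds sown in puddled paddy soil under 4 cm water, with two-leaf Koshihikari rice transplanted at 3 cm depth. On day 10 after transplanting, wettable powder applied to the water surface at 1 kg active ingredient per hectare. Herbicidal effect and crop safety scored on an index 21 days later.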

Setaria viridis [3] = assay: Upland soil treatment (Test Example 2); type: in vivo; details: soil surface treatment next day after sowing, wettable powder, 1 kg active ingredient per hectare, evaluated 21st day after application
In short: as §1

Digitaria adscendens [4] = assay: Upland soil treatment (Test Example 2); type: in vivo; details: soil surface treatment next day after sowing, wettable powder, 1 kg active ingredient per hectare, evaluated 21st day after application
In short: as §1

Stellaria media [5] = assay: Upland soil treatment (Test Example 2); type: in vivo; details: soil surface treatment next day after sowing, wettable powder, 1 kg active ingredient per hectare, evaluated 21st day after application
In short: as §1

Chenopodium album [6] = assay: Upland soil treatment (Test Example 2); type: in vivo; details: soil surface treatment next day after sowing, wettable powder, 1 kg active ingredient per hectare, evaluated 21st day after application
In short: as §1

Setaria viridis [7] = assay: Upland field foliage treatment (Test Example 1); type: in vivo; details: foliage treatment 14th day after sowing, wettable powder, 1 kg active ingredient per hectare, evaluated 21st day after application
In short: (§3)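 Weeds and crops were sown in upland soil under about 1 cm cover, and a wettable powder diluted in water was sprayed on the foliage 14 days after sowing at 1 kg active ingredient per hectare. Scoring was done 21 days after application on an index scale, where higher weed scores mean stronger herbicidal effect and lower crop scores mean greater crop safety.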

Digitaria adscendens [8] = assay: Upland field foliage treatment (Test Example 1); type: in vivo; details: foliage treatment 14th day after sowing, wettable powder, 1 kg active ingredient per hectare, evaluated 21st day after application
In short: as §3

Stellaria media [9] = assay: Upland field foliage treatment (Test Example 1); type: in vivo; details: foliage treatment 14th day after sowing, wettable powder, 1 kg active ingredient per hectare, evaluated 21st day after application
In short: as §3

Chenopodium album [10] = assay: Upland field foliage treatment (Test Example 1); type: in vivo; details: foliage treatment 14th day after sowing, wettable powder, 1 kg active ingredient per hectare, evaluated 21st day after application
In short: as §3

[11] = system: rice (Oryza sative, variety: Koshihikari); assay: Paddy field treatment (Test Example 3), crop; type: in vivo, Oryza sativa; details: transplanted rice two-leaf period, water surface treatment 10th day after transplantation, 1 kg active ingredient per hectare, evaluated 21st day, lower index = higher safety
In short: as §2

soybean (Glycine max) [12] = assay: Upland field foliage treatment (Test Example 1), crop; type: in vivo; details: foliage treatment 14th day after sowing, 1 kg active ingredient per hectare, evaluated 21st day, lower index = higher safety
In short: as §3

[13] = system: wheat (Triticum aestivum); assay: as above; type: in vivo; details: foliage treatment 14th day after sowing, 1 kg active ingredient per hectare, evaluated 21st day, lower index = higher safety
In short: as §3

Scirpus juncoides = assay: Paddy field treatment (Test Example 3); type: in vivo; details: paddy pot, submerged 4 cm, dropped on water surface 10th day after transplantation, 1 kg active ingredient per hectare, evaluated 21st day
In short: as §2

Ammannia multiflora = assay: Paddy field treatment (Test Example 3); type: in vivo; details: paddy pot, submerged 4 cm, dropped on water surface 10th day after transplantation, 1 kg active ingredient per hectare, evaluated 21st day
In short: as §2

Monochoria vaginalis = assay: Paddy field treatment (Test Example 3); type: in vivo; details: paddy pot, submerged 4 cm, dropped on water surface 10th day after transplantation, 1 kg active ingredient per hectare, evaluated 21st day
In short: as §2

Row | Structure (SMILES) | Herbicidal activity Glycine max (soybean (Glycine max) [1]) | Herbicidal activity Triticum aestivum [2] | Herbicidal activity Echinochloa spp. (Echinochloa spp.) | Herbicidal activity Setaria viridis (Setaria viridis [3]) | Herbicidal activity Digitaria adscendens (Digitaria adscendens [4]) | Herbicidal activity Stellaria media (Stellaria media [5]) | Herbicidal activity Chenopodium album (Chenopodium album [6]) | Herbicidal activity Setaria viridis (Setaria viridis [7]) | Herbicidal activity Digitaria adscendens (Digitaria adscendens [8]) | Herbicidal activity Stellaria media (Stellaria media [9]) | Herbicidal activity Chenopodium album (Chenopodium album [10]) | Herbicidal activity Oryza sativa [11] | Herbicidal activity Glycine max (soybean (Glycine max) [12]) | Herbicidal activity Triticum aestivum [13] | Herbicidal activity Scirpus juncoides (Scirpus juncoides) | Herbicidal activity Ammannia multiflora (Ammannia multiflora) | Herbicidal activity Monochoria vaginalis (Monochoria vaginalis)
1 | COC=C(Cn1nc(-c2ccc(Cl)cc2)c(C)c1C)C(=O)OC [Compound 35] | 0 (herbicidal effect of not less than 0% by weight and less than 10% by weight) | 0 (herbicidal effect of not less than 0% by weight and less than 10% by weight) | 3 (herbicidal effect of not less than 50% by weight and less than 70% by weight) | 4 (herbicidal effect of not less than 70% by weight and less than 90% by weight) | 4 (herbicidal effect of not less than 70% by weight and less than 90% by weight) | 4 (herbicidal effect of not less than 70% by weight and less than 90% by weight) | 4 (herbicidal effect of not less than 70% by weight and less than 90% by weight) | 4 (herbicidal effect of not less than 70% by weight and less than 90% by weight) | 4 (herbicidal effect of not less than 70% by weight and less than 90% by weight) | 4 (herbicidal effect of not less than 70% by weight and less than 90% by weight) | 4 (herbicidal effect of not less than 70% by weight and less than 90% by weight) | 0 (herbicidal effect of not less than 0% by weight and less than 10% by weight) | 0 (herbicidal effect of not less than 0% by weight and less than 10% by weight) | 0 (herbicidal effect of not less than 0% by weight and less than 10% by weight) | 3 (herbicidal effect of not less than 50% by weight and less than 70% by weight) | 4 (herbicidal effect of not less than 70% by weight and less than 90% by weight) | 4 (herbicidal effect of not less than 70% by weight and less than 90% by weight)
2 | COC=C(Cn1nc(-c2cc(Cl)ccc2Cl)c(Br)c1C)C(=O)OC [Compound 31] | 0 (herbicidal effect of not less than 0% by weight and less than 10% by weight) | 0 (herbicidal effect of not less than 0% by weight and less than 10% by weight) | 5 (herbicidal effect of not less than 90% by weight) | 5 (herbicidal effect of not less than 90% by weight) | 5 (herbicidal effect of not less than 90% by weight) | 5 (herbicidal effect of not less than 90% by weight) | 5 (herbicidal effect of not less than 90% by weight) | 5 (herbicidal effect of not less than 90% by weight) | 5 (herbicidal effect of not less than 90% by weight) | 5 (herbicidal effect of not less than 90% by weight) | 5 (herbicidal effect of not less than 90% by weight) | 1 (herbicidal effect of not less than 10% by weight and less than 30% by weight) | 1 (herbicidal effect of not less than 10% by weight and less than 30% by weight) | 1 (herbicidal effect of not less than 10% by weight and less than 30% by weight) | 5 (herbicidal effect of not less than 90% by weight) | 5 (herbicidal effect of not less than 90% by weight) | 5 (herbicidal effect of not less than 90% by weight)
3 | CCc1c(Cl)c(-c2ccccc2)nn1CC(=COC)C(=O)OC [Compound 39] | 0 (herbicidal effect of not less than 0% by weight and less than 10% by weight) | 0 (herbicidal effect of not less than 0% by weight and less than 10% by weight) | 4 (herbicidal effect of not less than 70% by weight and less than 90% by weight) | 4 (herbicidal effect of not less than 70% by weight and less than 90% by weight) | 4 (herbicidal effect of not less than 70% by weight and less than 90% by weight) | 4 (herbicidal effect of not less than 70% by weight and less than 90% by weight) | 4 (herbicidal effect of not less than 70% by weight and less than 90% by weight) | 4 (herbicidal effect of not less than 70% by weight and less than 90% by weight) | 4 (herbicidal effect of not less than 70% by weight and less than 90% by weight) | 5 (herbicidal effect of not less than 90% by weight) | 5 (herbicidal effect of not less than 90% by weight) | 0 (herbicidal effect of not less than 0% by weight and less than 10% by weight) | 1 (herbicidal effect of not less than 10% by weight and less than 30% by weight) | 0 (herbicidal effect of not less than 0% by weight and less than 10% by weight) | 4 (herbicidal effect of not less than 70% by weight and less than 90% by weight) | 3 (herbicidal effect of not less than 50% by weight and less than 70% by weight) | 3 (herbicidal effect of not less than 50% by weight and less than 70% by weight)
4 | COC=C(Cn1nc(-c2ccc(Cl)cc2Cl)cc1C)C(=O)OC [Compound 7] | 0 (herbicidal effect of not less than 0% by weight and less than 10% by weight) | 0 (herbicidal effect of not less than 0% by weight and less than 10% by weight) | 4 (herbicidal effect of not less than 70% by weight and less than 90% by weight) | 5 (herbicidal effect of not less than 90% by weight) | 4 (herbicidal effect of not less than 70% by weight and less than 90% by weight) | 4 (herbicidal effect of not less than 70% by weight and less than 90% by weight) | 4 (herbicidal effect of not less than 70% by weight and less than 90% by weight) | 4 (herbicidal effect of not less than 70% by weight and less than 90% by weight) | 4 (herbicidal effect of not less than 70% by weight and less than 90% by weight) | 5 (herbicidal effect of not less than 90% by weight) | 5 (herbicidal effect of not less than 90% by weight) | 0 (herbicidal effect of not less than 0% by weight and less than 10% by weight) | 0 (herbicidal effect of not less than 0% by weight and less than 10% by weight) | 0 (herbicidal effect of not less than 0% by weight and less than 10% by weight) | 3 (herbicidal effect of not less than 50% by weight and less than 70% by weight) | 4 (herbicidal effect of not less than 70% by weight and less than 90% by weight) | 4 (herbicidal effect of not less than 70% by weight and less than 90% by weight)
